Source: patent US12527739B2 (Alcon Inc., priority 2022, dated 2026)

Legend:
M1 muscarinic receptor = target: T1, M1 muscarinic receptor (Homo sapiens, UniProt P11229); experiment: Muscarinic receptor radioligand displacement binding, M1
T1 sequence (P11229 1-460): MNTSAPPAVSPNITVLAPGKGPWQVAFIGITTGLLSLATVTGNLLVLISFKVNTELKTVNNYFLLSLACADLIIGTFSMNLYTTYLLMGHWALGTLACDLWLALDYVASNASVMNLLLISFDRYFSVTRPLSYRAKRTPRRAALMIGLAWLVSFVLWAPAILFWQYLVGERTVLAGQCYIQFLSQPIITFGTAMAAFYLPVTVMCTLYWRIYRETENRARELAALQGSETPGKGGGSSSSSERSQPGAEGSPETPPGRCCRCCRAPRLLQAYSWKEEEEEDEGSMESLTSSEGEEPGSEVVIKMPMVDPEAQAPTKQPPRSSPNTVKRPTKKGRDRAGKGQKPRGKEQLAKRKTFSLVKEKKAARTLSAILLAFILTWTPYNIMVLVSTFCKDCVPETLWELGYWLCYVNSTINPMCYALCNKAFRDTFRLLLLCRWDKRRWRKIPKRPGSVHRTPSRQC

M2 muscarinic receptor = target: T2, M2 muscarinic receptor (Homo sapiens, UniProt P08172); experiment: Muscarinic receptor radioligand displacement binding, M2
T2 sequence (P08172 1-466): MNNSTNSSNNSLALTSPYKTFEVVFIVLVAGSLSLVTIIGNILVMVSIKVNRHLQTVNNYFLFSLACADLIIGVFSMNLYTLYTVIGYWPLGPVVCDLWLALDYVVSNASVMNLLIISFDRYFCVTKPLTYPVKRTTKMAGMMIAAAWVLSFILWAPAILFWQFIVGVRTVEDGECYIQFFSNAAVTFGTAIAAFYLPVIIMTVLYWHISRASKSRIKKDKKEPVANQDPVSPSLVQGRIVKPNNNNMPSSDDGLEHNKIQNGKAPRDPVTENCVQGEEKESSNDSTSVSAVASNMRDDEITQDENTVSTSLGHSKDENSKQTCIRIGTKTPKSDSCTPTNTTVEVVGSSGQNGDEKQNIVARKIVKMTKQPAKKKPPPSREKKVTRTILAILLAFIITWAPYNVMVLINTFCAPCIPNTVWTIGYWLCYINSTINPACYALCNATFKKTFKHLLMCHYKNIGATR

M3 muscarinic receptor = M3 muscarinic receptor (Homo sapiens, UniProt P20309); experiment: Muscarinic receptor radioligand displacement binding, M3
M5 muscarinic receptor = target: T3, M5 muscarinic receptor (Homo sapiens, UniProt P08912); experiment: Muscarinic receptor radioligand displacement binding, M5
T3 sequence (P08912 1-532): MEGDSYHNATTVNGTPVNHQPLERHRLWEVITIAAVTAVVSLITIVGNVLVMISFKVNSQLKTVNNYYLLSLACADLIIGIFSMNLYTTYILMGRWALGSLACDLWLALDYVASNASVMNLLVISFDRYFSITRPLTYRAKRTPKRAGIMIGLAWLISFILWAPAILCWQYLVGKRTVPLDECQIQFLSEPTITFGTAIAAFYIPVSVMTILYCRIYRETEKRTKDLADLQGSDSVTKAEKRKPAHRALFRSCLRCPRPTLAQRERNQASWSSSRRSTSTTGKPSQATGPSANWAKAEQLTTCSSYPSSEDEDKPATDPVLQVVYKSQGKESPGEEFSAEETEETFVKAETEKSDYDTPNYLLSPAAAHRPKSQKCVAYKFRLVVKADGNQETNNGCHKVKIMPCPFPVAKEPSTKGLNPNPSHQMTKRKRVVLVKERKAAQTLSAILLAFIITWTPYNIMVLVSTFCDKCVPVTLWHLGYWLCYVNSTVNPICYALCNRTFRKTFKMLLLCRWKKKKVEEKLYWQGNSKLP

[1] = system: form deprivation-induced myopia (FDM); experiment: Form deprivation-induced myopia (FDM) chick model; assay type: in vivo
[2] = pH adjustment of methyl atropine and benzyl atropine solutions, HPLC analysis; assay type: physicochemical; conditions: for Actual concentration (HPLC) / pH after incubation (24 hours): after pH adjustment; for Initial pH: before pH adjustment
[3] = Solubility of benzyl atropine in surfactants (single excipients); assay type: physicochemical
Protocol: Initially, single excipients were evaluated (Table 8).

[4] = Concentration of benzyl atropine in surfactant mixtures; assay type: physicochemical
[5] = HPβCD as a solubilizer for benzyl atropine; assay type: physicochemical; conditions: pH 3.1
[6] = Solubilizing mixtures with citrate and acetate buffers; conditions: for Actual Conc. / Final pH: 7.0% PEG-40 Stearate, 5.0% PEG-35 Castor Oil
[7] = 0.3% Tyloxapol in Phosphate Buffer, pH 2.8
[8] = 2.0% Poloxamer 407 in Phosphate Buffer, pH 2.8
[9] = 4.0% Tween 80 in Phosphate Buffer, pH 2.9
[10] = 5.0% PEG-35 Castor Oil in Acetic Acid Buffer, pH 2.8
[11] = 5.0% PEG-35 Castor Oil in Phosphate Buffer, pH 2.8
[12] = 7.0% PEG0-40 Stearate in Phosphate Buffer, pH 3.0
[13] = 20% DMSO in Phosphate Buffer, pH 2.7
[14] = 50% Glycerol in Phosphate Buffer in Phosphate Buffer, pH 2.5
[15] = 50% Propylene Glycol in Phosphate Buffer, pH 2.9
[16] = 0.43% Sodium Chloride, 10.0% HPβCD in 20 mM Phosphate Buffer
[17] = 2.21% Mannitol, 10.0% HPβCD in 20 mM Phosphate Buffer
[18] = 2.5% HPβCD in 20 mM Phosphate Buffer
[19] = 5.0% HPβCD in 20 mM Phosphate Buffer
[20] = 10.0% HPβCD in 20 mM Phosphate Buffer
[21] = 20 mM Citrate Buffer, pH 3.0 before API, 5.0% PEG-400
[22] = 20 mM Citrate Buffer, pH 4.65 before API, 5.0% PEG-400
[23] = 30 mM Acetate Buffer, pH 4.38 before API, 3.5% PEG-400
[24] = 30 mM Acetate Buffer, pH 4.56 before API, 3.5% PEG-400
[25] = 30 mM Acetate Buffer, pH 5.11 before API, 5.0% PEG-400

Chain of M3 muscarinic receptor (P20309 whole entry): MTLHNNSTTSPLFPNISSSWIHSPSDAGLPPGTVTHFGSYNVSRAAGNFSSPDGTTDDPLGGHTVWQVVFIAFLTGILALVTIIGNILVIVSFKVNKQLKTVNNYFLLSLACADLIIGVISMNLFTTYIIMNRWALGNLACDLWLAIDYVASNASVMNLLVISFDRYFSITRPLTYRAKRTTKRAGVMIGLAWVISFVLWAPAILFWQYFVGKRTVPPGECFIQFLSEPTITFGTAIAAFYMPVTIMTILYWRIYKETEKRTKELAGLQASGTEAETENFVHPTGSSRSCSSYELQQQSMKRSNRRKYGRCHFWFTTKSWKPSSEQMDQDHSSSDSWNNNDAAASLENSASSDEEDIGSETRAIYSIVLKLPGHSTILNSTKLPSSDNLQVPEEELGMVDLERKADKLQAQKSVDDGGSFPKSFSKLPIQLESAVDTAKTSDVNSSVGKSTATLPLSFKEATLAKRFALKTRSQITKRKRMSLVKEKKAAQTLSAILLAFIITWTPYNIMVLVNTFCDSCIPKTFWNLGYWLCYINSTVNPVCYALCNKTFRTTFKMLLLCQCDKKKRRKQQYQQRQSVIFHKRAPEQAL

With `CN1C2CCC1CC(OC(=O)C(CO)(Cc1ccccc1)c1ccccc1)C2` (racemic) [Benzyl Atropine, benzyl atropine] the Ki (M1 muscarinic receptor) was 830 nM, the “binding to the receptor (in words)” value (M1 muscarinic receptor) was “bind weakly” and the “binding to the receptor (in words)” value (M2 muscarinic receptor) was “not to bind at all”. For the same compound, the “binding to the receptor (in words)” value (M3 muscarinic receptor) was “not to bind at all”, the “binding to the receptor (in words)” value (M5 muscarinic receptor) was “not to bind at all” and the “efficacy compared with atropine in FDM chick model” value ([1]; at approximately ten-fold lower concentration than atropine, FIG. 1 Panel B (24 nmol vs 240 nmol)) was “as effective as atropine”. For the same compound, the “efficacy in FDM chick model” value ([1]; intravitreal injection day 2 and day 4, readout day 5, FIG. 1 Panel A) was “effective”, the “change in refractive error (goggled eye value minus ungoggled eye value)” value ([1]; with respect to 5% v/v ethanol solution, FIG. 1 Panel A) was “significantly decreased” and the “Actual concentration (HPLC)” value ([2]; 30 mM Phosphate Buffer, pH 7.4) was 0.05 mg/g. For the same compound, the “pH after incubation (24 hours)” value ([2]; 30 mM Phosphate Buffer, pH 7.4) was 6.23, the “Initial pH” value ([2]; 30 mM Phosphate Buffer, pH 7.4) was 7.7 and the “Actual concentration (HPLC)” value ([2]; Phosphate Buffered Saline) was 0.04 mg/g. The “pH after incubation (24 hours)” value ([2]; Phosphate Buffered Saline) was 5.7, the “Initial pH” value ([2]; Phosphate Buffered Saline) was 7.7 and the “dissolution upon pH adjustment (in words)” value ([2]; lowered pH of the vehicle) was “did not fully dissolve”. For the same compound, the “Actual Concentration” value ([3]; 50% Propylene Glycol in 30 mM Phosphate Buffer, pH 7.4) was 1.85 mg/g, the “Actual Concentration” value ([3]; PEG-400 (neat)) was 8.01 mg/g and the drug solubility ([3]; PEG-400 (neat)) was 0.8%. The “Actual Concentration” value ([3]; Polypropylene Glycol (neat)) was 7.86 mg/g, the “Actual Concentration” value ([3]; Propylene Glycol (neat)) was 6.96 mg/g and the “Actual Concentration” value [4, 7] was 0.19 mg/g. For the same compound, the “pH after API Dissolution” value [4, 7] was 7.3, the “Actual Concentration” value [4, 8] was 0.20 mg/g and the “pH after API Dissolution” value [4, 8] was 7.4. For the same compound, the “Actual Concentration” value [4, 9] was 0.58 mg/g, the “pH after API Dissolution” value [4, 9] was 7.3 and the “Actual Concentration” value [4, 10] was 1.16 mg/g. For the same compound, the “pH after API Dissolution” value [4, 10] was 3.1, the “Actual Concentration” value [4, 11] was 0.68 mg/g and the “pH after API Dissolution” value [4, 11] was 7.3. For the same compound, the “Actual Concentration” value [4, 12] was 0.47 mg/g, the “pH after API Dissolution” value [4, 12] was 7.4 and the “Actual Concentration” value [4, 13] was 0.30 mg/g. The “pH after API Dissolution” value [4, 13] was 8.1, the “Actual Concentration” value [4, 14] was 0.84 mg/g and the “pH after API Dissolution” value [4, 14] was 7.6. The “Actual Concentration” value [4, 15] was 1.56 mg/g, the “pH after API Dissolution” value [4, 15] was 8.3 and the “Actual Concentration” value [5, 16] was 5.92 mg/g. The “Final pH” value [5, 16] was 5.8, the “Actual Concentration” value [5, 17] was 5.23 mg/g and the “Final pH” value [5, 17] was 5.7. For the same compound, the “Concentration Dissolved” value [5, 18] was 3.53 mg/g, the “Final pH” value [5, 18] was 7.1 and the “Concentration Dissolved” value [5, 19] was 4.16 mg/g. For the same compound, the “Final pH” value [5, 19] was 7.0, the “Concentration Dissolved” value [5, 20] was 4.51 mg/g and the “Final pH” value [5, 20] was 7.1. The “Actual Conc.” value [6, 21] was 5.73 mg/g, the “Final pH” value [6, 21] was 4.4 and the “Actual Conc.” value [6, 22] was 2.38 mg/g. The “Final pH” value [6, 22] was 5.8, the “Actual Conc.” value [6, 23] was 5.49 mg/g and the “Final pH” value [6, 23] was 4.9. The “Actual Conc.” value [6, 24] was 5.42 mg/g, the “Final pH” value [6, 24] was 5.5 and the “Actual Conc.” value [6, 25] was 3.59 mg/g. For the same compound, the “Final pH” value [6, 25] was 7.7 and the saturated solubility limit ([6]; from stability assessment, compound crashed out of solution over storage) was ~5 mg/g.
